ChEMBL document CHEMBL5724914, “Linking interpersonal differences in gut microbiota composition and drug biotransformation activity” (2024)

Assay: (§1) The drug is tested on Z-021 corresponding to metagenome with ENA study accession number: PRJEB37062 and ENA sample accession number: ERS12561820 for biotransformation under anaerobic condition. The drug concentrations were measured over 9 timepoints collected between 0 and 24 hours of incubation by liquid-chromatography-coupled mass spectrometry (LC–MS)
Details: 2 µM
Note: call rule not given here.

SMILES | Bacterial Biotransformation
CC(C)C[C@H]1C(=O)N2CCC[C@H]2[C@]2(O)O[C@](NC(=O)[C@@H]3C=C4c5cccc6[nH]c(Br)c(c56)C[C@H]4N(C)C3)(C(C)C)C(=O)N12.CS(=O)(=O)O [BROMOCRIPTINE MESYLATE] | Compound metabolized
CCc1cccc2c3c([nH]c12)C(CC)(CC(=O)O)OCC3 (configuration not stated) [ETODOLAC] | Compound NOT metabolized

Assay: (§2) The drug is tested on Z-019 corresponding to rat gut metagenome with ENA study accession number: PRJEB37062 and ENA sample accession number: ERS12561818 for biotransformation under anaerobic condition. The drug concentrations were measured over 9 timepoints collected between 0 and 24 hours of incubation by liquid-chromatography-coupled mass spectrometry (LC–MS)
Details: 2 µM

SMILES | Bacterial Biotransformation
CC(C)C[C@H]1C(=O)N2CCC[C@H]2[C@]2(O)O[C@](NC(=O)[C@@H]3C=C4c5cccc6[nH]c(Br)c(c56)C[C@H]4N(C)C3)(C(C)C)C(=O)N12.CS(=O)(=O)O [BROMOCRIPTINE MESYLATE] | Compound metabolized
CCc1cccc2c3c([nH]c12)C(CC)(CC(=O)O)OCC3 (configuration not stated) [ETODOLAC] | Compound NOT metabolized

Assay: as §2, with “on Z-018” for “on Z-019”, “to pig” for “to rat”, “number: ERS12561817” for “number: ERS12561818”
Details: 2 µM

SMILES | Bacterial Biotransformation
CC(C)C[C@H]1C(=O)N2CCC[C@H]2[C@]2(O)O[C@](NC(=O)[C@@H]3C=C4c5cccc6[nH]c(Br)c(c56)C[C@H]4N(C)C3)(C(C)C)C(=O)N12.CS(=O)(=O)O [BROMOCRIPTINE MESYLATE] | Compound metabolized
CCc1cccc2c3c([nH]c12)C(CC)(CC(=O)O)OCC3 (configuration not stated) [ETODOLAC] | Compound metabolized

Assay: as §2, with “on Z-017” for “on Z-019”, “to mouse” for “to rat”, “number: ERS12561816” for “number: ERS12561818”
Details: 2 µM

SMILES | Bacterial Biotransformation
CC(C)C[C@H]1C(=O)N2CCC[C@H]2[C@]2(O)O[C@](NC(=O)[C@@H]3C=C4c5cccc6[nH]c(Br)c(c56)C[C@H]4N(C)C3)(C(C)C)C(=O)N12.CS(=O)(=O)O [BROMOCRIPTINE MESYLATE] | Compound metabolized
CCc1cccc2c3c([nH]c12)C(CC)(CC(=O)O)OCC3 (configuration not stated) [ETODOLAC] | Compound NOT metabolized

Assay: as §2, with “Z-014” for “Z-019”, “ERS12561814” for “ERS12561818”
Details: 2 µM

SMILES | Bacterial Biotransformation
CC(C)C[C@H]1C(=O)N2CCC[C@H]2[C@]2(O)O[C@](NC(=O)[C@@H]3C=C4c5cccc6[nH]c(Br)c(c56)C[C@H]4N(C)C3)(C(C)C)C(=O)N12.CS(=O)(=O)O [BROMOCRIPTINE MESYLATE] | Compound metabolized
CCc1cccc2c3c([nH]c12)C(CC)(CC(=O)O)OCC3 (configuration not stated) [ETODOLAC] | Compound NOT metabolized

Assay: as §1, with “Z-010” for “Z-021”, “ERS12561810” for “ERS12561820”
Details: 2 µM

SMILES | Bacterial Biotransformation
CC(C)C[C@H]1C(=O)N2CCC[C@H]2[C@]2(O)O[C@](NC(=O)[C@@H]3C=C4c5cccc6[nH]c(Br)c(c56)C[C@H]4N(C)C3)(C(C)C)C(=O)N12.CS(=O)(=O)O [BROMOCRIPTINE MESYLATE] | Compound metabolized
CCc1cccc2c3c([nH]c12)C(CC)(CC(=O)O)OCC3 (configuration not stated) [ETODOLAC] | Compound NOT metabolized

Assay: as §1, with “Z-005” for “Z-021”, “ERS12561805” for “ERS12561820”
Details: 2 µM

SMILES | Bacterial Biotransformation
CC(C)C[C@H]1C(=O)N2CCC[C@H]2[C@]2(O)O[C@](NC(=O)[C@@H]3C=C4c5cccc6[nH]c(Br)c(c56)C[C@H]4N(C)C3)(C(C)C)C(=O)N12.CS(=O)(=O)O [BROMOCRIPTINE MESYLATE] | Compound metabolized
CCc1cccc2c3c([nH]c12)C(CC)(CC(=O)O)OCC3 (configuration not stated) [ETODOLAC] | Compound NOT metabolized

Assay: as §2, with “on Z-001” for “on Z-019”, “to mouse” for “to rat”, “number: ERS12561801” for “number: ERS12561818”
Details: 2 µM

SMILES | Bacterial Biotransformation
CC(C)C[C@H]1C(=O)N2CCC[C@H]2[C@]2(O)O[C@](NC(=O)[C@@H]3C=C4c5cccc6[nH]c(Br)c(c56)C[C@H]4N(C)C3)(C(C)C)C(=O)N12.CS(=O)(=O)O [BROMOCRIPTINE MESYLATE] | Compound metabolized
CCc1cccc2c3c([nH]c12)C(CC)(CC(=O)O)OCC3 (configuration not stated) [ETODOLAC] | Compound NOT metabolized

Assay: as §2, with “on WLS-170” for “on Z-019”, “to human” for “to rat”, “number: ERS12561762” for “number: ERS12561818”
Details: 2 µM

SMILES | Bacterial Biotransformation
CC(C)C[C@H]1C(=O)N2CCC[C@H]2[C@]2(O)O[C@](NC(=O)[C@@H]3C=C4c5cccc6[nH]c(Br)c(c56)C[C@H]4N(C)C3)(C(C)C)C(=O)N12.CS(=O)(=O)O [BROMOCRIPTINE MESYLATE] | Compound metabolized
CCc1cccc2c3c([nH]c12)C(CC)(CC(=O)O)OCC3 (configuration not stated) [ETODOLAC] | Compound metabolized

Assay: as §2, with “on WLS-090” for “on Z-019”, “to human” for “to rat”, “number: ERS12561753” for “number: ERS12561818”
Details: 2 µM

SMILES | Bacterial Biotransformation
CC(C)C[C@H]1C(=O)N2CCC[C@H]2[C@]2(O)O[C@](NC(=O)[C@@H]3C=C4c5cccc6[nH]c(Br)c(c56)C[C@H]4N(C)C3)(C(C)C)C(=O)N12.CS(=O)(=O)O [BROMOCRIPTINE MESYLATE] | Compound metabolized
CCc1cccc2c3c([nH]c12)C(CC)(CC(=O)O)OCC3 (configuration not stated) [ETODOLAC] | Compound metabolized

Assay: as §2, with “on WLS-086” for “on Z-019”, “to human” for “to rat”, “number: ERS12561752” for “number: ERS12561818”
Details: 2 µM

Bacterial Biotransformation | SMILES
Compound metabolized | CCc1cccc2c3c([nH]c12)C(CC)(CC(=O)O)OCC3 (configuration not stated) [ETODOLAC]

Assay: as §2, with “on WLS-082” for “on Z-019”, “to human” for “to rat”, “number: ERS12561751” for “number: ERS12561818”
Details: 2 µM

SMILES | Bacterial Biotransformation
CC(C)C[C@H]1C(=O)N2CCC[C@H]2[C@]2(O)O[C@](NC(=O)[C@@H]3C=C4c5cccc6[nH]c(Br)c(c56)C[C@H]4N(C)C3)(C(C)C)C(=O)N12.CS(=O)(=O)O [BROMOCRIPTINE MESYLATE] | Compound metabolized

Assay: as §2, with “on WLS-039” for “on Z-019”, “to human” for “to rat”, “number: ERS12561746” for “number: ERS12561818”
Details: 2 µM

SMILES | Bacterial Biotransformation
CC(C)C[C@H]1C(=O)N2CCC[C@H]2[C@]2(O)O[C@](NC(=O)[C@@H]3C=C4c5cccc6[nH]c(Br)c(c56)C[C@H]4N(C)C3)(C(C)C)C(=O)N12.CS(=O)(=O)O [BROMOCRIPTINE MESYLATE] | Compound metabolized
CCc1cccc2c3c([nH]c12)C(CC)(CC(=O)O)OCC3 (configuration not stated) [ETODOLAC] | Compound metabolized

Assay: as §2, with “on WLS-027” for “on Z-019”, “to human” for “to rat”, “number: ERS12561744” for “number: ERS12561818”
Details: 2 µM

SMILES | Bacterial Biotransformation
CC(C)C[C@H]1C(=O)N2CCC[C@H]2[C@]2(O)O[C@](NC(=O)[C@@H]3C=C4c5cccc6[nH]c(Br)c(c56)C[C@H]4N(C)C3)(C(C)C)C(=O)N12.CS(=O)(=O)O [BROMOCRIPTINE MESYLATE] | Compound metabolized
CCc1cccc2c3c([nH]c12)C(CC)(CC(=O)O)OCC3 (configuration not stated) [ETODOLAC] | Compound metabolized

Details: human gut metagenome, 24 h, 2 µM

SMILES | Bacterial Biotransformation
CC(C)C[C@H]1C(=O)N2CCC[C@H]2[C@]2(O)O[C@](NC(=O)[C@@H]3C=C4c5cccc6[nH]c(Br)c(c56)C[C@H]4N(C)C3)(C(C)C)C(=O)N12.CS(=O)(=O)O [BROMOCRIPTINE MESYLATE] | Compound metabolized
CCc1cccc2c3c([nH]c12)C(CC)(CC(=O)O)OCC3 (configuration not stated) [ETODOLAC] | Compound NOT metabolized

Details: human gut metagenome, 24 h, 2 µM
Remark: another data set of the same source

SMILES | Bacterial Biotransformation
CC(C)C[C@H]1C(=O)N2CCC[C@H]2[C@]2(O)O[C@](NC(=O)[C@@H]3C=C4c5cccc6[nH]c(Br)c(c56)C[C@H]4N(C)C3)(C(C)C)C(=O)N12.CS(=O)(=O)O [BROMOCRIPTINE MESYLATE] | Compound NOT metabolized
CCc1cccc2c3c([nH]c12)C(CC)(CC(=O)O)OCC3 (configuration not stated) [ETODOLAC] | Compound metabolized

Details: human gut metagenome, 24 h, 2 µM
Remark: another data set of the same source

Bacterial Biotransformation | SMILES
Compound metabolized | CCc1cccc2c3c([nH]c12)C(CC)(CC(=O)O)OCC3 (configuration not stated) [ETODOLAC]

Details: human gut metagenome, 24 h, 2 µM
Remark: another data set of the same source

SMILES | Bacterial Biotransformation
CC(C)C[C@H]1C(=O)N2CCC[C@H]2[C@]2(O)O[C@](NC(=O)[C@@H]3C=C4c5cccc6[nH]c(Br)c(c56)C[C@H]4N(C)C3)(C(C)C)C(=O)N12.CS(=O)(=O)O [BROMOCRIPTINE MESYLATE] | Compound metabolized
CCc1cccc2c3c([nH]c12)C(CC)(CC(=O)O)OCC3 (configuration not stated) [ETODOLAC] | Compound metabolized

Details: human gut metagenome, 24 h, 2 µM
Remark: another data set of the same source

SMILES | Bacterial Biotransformation
CC(C)C[C@H]1C(=O)N2CCC[C@H]2[C@]2(O)O[C@](NC(=O)[C@@H]3C=C4c5cccc6[nH]c(Br)c(c56)C[C@H]4N(C)C3)(C(C)C)C(=O)N12.CS(=O)(=O)O [BROMOCRIPTINE MESYLATE] | Compound NOT metabolized
CCc1cccc2c3c([nH]c12)C(CC)(CC(=O)O)OCC3 (configuration not stated) [ETODOLAC] | Compound NOT metabolized

Details: human gut metagenome, 24 h, 2 µM
Remark: another data set of the same source

SMILES | Bacterial Biotransformation
CC(C)C[C@H]1C(=O)N2CCC[C@H]2[C@]2(O)O[C@](NC(=O)[C@@H]3C=C4c5cccc6[nH]c(Br)c(c56)C[C@H]4N(C)C3)(C(C)C)C(=O)N12.CS(=O)(=O)O [BROMOCRIPTINE MESYLATE] | Compound metabolized
CCc1cccc2c3c([nH]c12)C(CC)(CC(=O)O)OCC3 (configuration not stated) [ETODOLAC] | Compound metabolized
